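Cells were grown in 96-well plates and exposed to each compound for 48 hours at five concentrations; endpoints were interpolated linearly between bracketing concentrations, or set to the highest concentration if not reached. TGI: total growth inhibition.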
Columns and labels:
Test in all cases: DTP human tumour cell line panel, 48 h
[1] = test system: COLO 205 colon
[2] = test system: DLD-1 colon
[3] = test system: NCI-H522 lung
[4] = test system: OVCAR-4 ovarian
[5] = test system: RPMI-8226 leukemia
[6] = test system: SF-268 CNS
[7] = test system: SNB-75 CNS

Measured: TGI

CCOC(=O)NC(=O)c1cn(CCNCCO)c(=O)[nH]c1=O
> 100 µM: all assays above
